Laboratory results as given in US12150998B2, “Bicyclic peptide ligands specific for P-selectin” (BicycleTx Limited, priority 2021, dated 2024).
Where two headings read alike, the source gives them in different places. Starred links: 1 amine or outer side, 2 acyl side, 3 side chain; linkers in the order of their positions; H or OH if unused. Positions of bridges follow the written chain, without caps; N, C: chain ends. Non-standard residues stand in square brackets, D forms with d. Chains are numbered I, II in the order given. No end group written: not given here. X3 = O=C(CCOCCN(CCOCCC(=O)NCCOCCOCCOCCOCCOCCOCCOCCOCCOCCOCCOCCOCCOCCOCCOCCOCCOCCOCCOCCOCCOCCOCCOCCn1cc(CCC(=O)[*:2])nn1)CCOCCC(=O)NCCOCCOCCOCCOCCOCCOCCOCCOCCOCCOCCOCCOCCOCCOCCOCCOCCOCCOCCOCCOCCOCCOCCOCCn1cc(CCC(=O)[*:3])nn1)NCCOCCOCCOCCOCCOCCOCCOCCOCCOCCOCCOCCOCCOCCOCCOCCOCCOCCOCCOCCOCCOCCOCCOCCn1cc(CCC(=O)[*:1])nn1; X1 = O=C(C[*:1])N1CCN(C(=O)C[*:2])CCN(C(=O)C[*:3])CC1; 1Nal = N[C@@H](Cc1cccc2ccccc12)C(=O)O

Columns and labels:
[1] = biological target: T1, P-Selectin:PSGL1 interaction (Homo sapiens, UniProt P16109); assay: Receptor ligand inhibition assay (P-Selectin binding to HL-60 cells); format: cell-based; settings: for Inhibition at top concentration: 100−% response at top concentration
T1 construct: host or cells: HL-60 cells (ATCC, CCL-240) supply the PSGL-1 partner endogenously
T1 sequence (P16109 42-771 limits assumed): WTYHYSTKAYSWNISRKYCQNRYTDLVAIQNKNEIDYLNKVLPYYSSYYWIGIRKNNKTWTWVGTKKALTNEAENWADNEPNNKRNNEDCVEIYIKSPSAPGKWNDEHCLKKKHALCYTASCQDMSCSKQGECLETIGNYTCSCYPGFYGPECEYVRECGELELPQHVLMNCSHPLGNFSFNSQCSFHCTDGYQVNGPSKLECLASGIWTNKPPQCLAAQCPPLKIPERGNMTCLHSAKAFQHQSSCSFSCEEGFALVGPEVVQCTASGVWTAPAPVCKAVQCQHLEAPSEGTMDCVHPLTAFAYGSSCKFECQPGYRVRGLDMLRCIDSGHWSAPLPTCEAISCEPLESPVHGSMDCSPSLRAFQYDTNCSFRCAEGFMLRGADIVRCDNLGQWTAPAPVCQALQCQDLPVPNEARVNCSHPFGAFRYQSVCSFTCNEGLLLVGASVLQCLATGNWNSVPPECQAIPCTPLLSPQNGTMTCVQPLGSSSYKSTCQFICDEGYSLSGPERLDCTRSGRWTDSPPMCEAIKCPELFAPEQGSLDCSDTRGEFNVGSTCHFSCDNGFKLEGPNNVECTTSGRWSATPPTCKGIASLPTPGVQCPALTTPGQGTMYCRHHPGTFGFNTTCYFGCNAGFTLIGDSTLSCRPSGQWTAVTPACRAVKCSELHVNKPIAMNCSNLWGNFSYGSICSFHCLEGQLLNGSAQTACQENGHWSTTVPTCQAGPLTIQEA
Outline: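 Serial dilutions in HEPES buffer, pH 7.4, with 1% BSA and 0.5% DMSO were preincubated 15 min at room temperature with P-selectin (5 nM final). HL-60 cells with far-red WGA and AF488-streptavidin were then added for 2 h, binding read by microplate cytometry; IC50 from four-parameter logistic fit, % inhibition as 100−% response at top concentration.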

human P-Selectin protein = biological target: T2, human P-Selectin protein (Homo sapiens, UniProt P16109); assay: SPR binding assay (Biacore); settings: Affinity KD determined by SPR, recombinant biotinylated human P-Selectin, 25° C.
T2 sequence (P16109 42-830): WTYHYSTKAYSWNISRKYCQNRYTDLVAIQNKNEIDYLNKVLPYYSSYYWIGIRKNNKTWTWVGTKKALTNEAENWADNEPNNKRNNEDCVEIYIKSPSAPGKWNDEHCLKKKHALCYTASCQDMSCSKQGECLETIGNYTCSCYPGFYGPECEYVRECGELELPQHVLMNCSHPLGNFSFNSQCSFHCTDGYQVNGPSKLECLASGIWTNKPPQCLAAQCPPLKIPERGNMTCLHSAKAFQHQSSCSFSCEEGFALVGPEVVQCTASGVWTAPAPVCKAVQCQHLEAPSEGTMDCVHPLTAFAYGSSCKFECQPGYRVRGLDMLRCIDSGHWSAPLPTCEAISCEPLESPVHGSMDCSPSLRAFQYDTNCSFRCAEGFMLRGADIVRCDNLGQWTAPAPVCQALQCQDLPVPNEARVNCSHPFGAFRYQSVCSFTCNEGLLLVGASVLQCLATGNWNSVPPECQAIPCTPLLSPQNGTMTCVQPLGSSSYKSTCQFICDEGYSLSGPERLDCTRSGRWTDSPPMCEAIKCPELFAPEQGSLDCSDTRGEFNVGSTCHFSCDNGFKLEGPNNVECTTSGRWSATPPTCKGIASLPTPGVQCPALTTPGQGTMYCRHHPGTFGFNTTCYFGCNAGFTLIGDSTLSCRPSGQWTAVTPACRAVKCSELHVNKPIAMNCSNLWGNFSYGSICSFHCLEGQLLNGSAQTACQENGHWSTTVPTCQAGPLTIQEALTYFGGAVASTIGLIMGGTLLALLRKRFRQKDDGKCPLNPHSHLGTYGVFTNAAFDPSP
Outline: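 Biotinylated recombinant human P-Selectin was captured on a streptavidin chip (1000-1500 RU), and monomeric peptides were injected in PBS/0.05% Tween 20 with 0.5% DMSO at 25 °C (top 200 nM–50 μM, 2- or 3-fold series). Double-referenced data were fitted to a kinetic model with mass transport to give ka, kd and KD.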

[2] = 5 nM P-Selectin, HL-60 cells, geomean of n=3, read-out: IC50

Molecule	IC50 [1] [nM]	Inhibition at top concentration ([1]; geomean of n=3) [%]	Kd (human P-Selectin protein) [nM]	IC50 [1, 2] [nM]
CC(C)C[C@@H]1NC(=O)[C@H](CO)NC(=O)[C@@H]2CCCN2C(=O)[C@H](C(C)C)NC(=O)[C@H](CC(=O)O)NC(=O)[C@@H]2CSCC(=O)N3CCN(CCN(CC3)C(=O)CSC[C@@H](C(=O)N[C@@H](C)C(=O)N[C@@H](CCCCNC(=O)CCc3cn(CCOCCOCCOCCOCCOCCOCCOCCOCCOCCOCCOCCOCCOCCOCCOCCOCCOCCOCCOCCOCCOCCOCCOCCNC(=O)CCOCC(COCCC(=O)NCCOCCOCCOCCOCCOCCOCCOCCOCCOCCOCCOCCOCCOCCOCCOCCOCCOCCOCCOCCOCCOCCOCCOCCn4cc(CCC(=O)NCCCC[C@H](NC(=O)[C@H](C)NC(=O)[C@@H]5CSCC(=O)N6CCN7CCN(CC6)C(=O)CSC[C@H](NC(=O)[C@H](Cc6cccc8ccccc68)NC(=O)[C@H](CC(=O)O)NC(=O)[C@H](C)NC(=O)[C@H](CC(=O)O)NC(=O)[C@@H](NC(=O)[C@H](C)N)CSCC7=O)C(=O)N[C@@H](CC(=O)O)C(=O)N[C@@H](C(C)C)C(=O)N6CCC[C@H]6C(=O)N[C@@H](CO)C(=O)N[C@@H](CC(C)C)C(=O)N6CCC[C@H]6C(=O)N5)C(N)=O)nn4)(COCCC(=O)NCCOCCOCCOCCOCCOCCOCCOCCOCCOCCOCCOCCOCCOCCOCCOCCOCCOCCOCCOCCOCCOCCOCCOCCn4cc(CCC(=O)NCCCC[C@H](NC(=O)[C@H](C)NC(=O)[C@@H]5CSCC(=O)N6CCN7CCN(CC6)C(=O)CSC[C@H](NC(=O)[C@H](Cc6cccc8ccccc68)NC(=O)[C@H](CC(=O)O)NC(=O)[C@H](C)NC(=O)[C@H](CC(=O)O)NC(=O)[C@@H](NC(=O)[C@H](C)N)CSCC7=O)C(=O)N[C@@H](CC(=O)O)C(=O)N[C@@H](C(C)C)C(=O)N6CCC[C@H]6C(=O)N[C@@H](CO)C(=O)N[C@@H](CC(C)C)C(=O)N6CCC[C@H]6C(=O)N5)C(N)=O)nn4)COCCC(=O)NCCOCCOCCOCCOCCOCCOCCOCCOCCOCCOCCOCCOCCOCCOCCOCCOCCOCCOCCOCCOCCOCCOCCOCCn4cc(CCC(=O)NCCCC[C@H](NC(=O)[C@H](C)NC(=O)[C@@H]5CSCC(=O)N6CCN7CCN(CC6)C(=O)CSC[C@H](NC(=O)[C@H](Cc6cccc8ccccc68)NC(=O)[C@H](CC(=O)O)NC(=O)[C@H](C)NC(=O)[C@H](CC(=O)O)NC(=O)[C@@H](NC(=O)[C@H](C)N)CSCC7=O)C(=O)N[C@@H](CC(=O)O)C(=O)N[C@@H](C(C)C)C(=O)N6CCC[C@H]6C(=O)N[C@@H](CO)C(=O)N[C@@H](CC(C)C)C(=O)N6CCC[C@H]6C(=O)N5)C(N)=O)nn4)nn3)C(N)=O)NC(=O)[C@@H]3CCCN3C1=O)C(=O)CSC[C@H](NC(=O)[C@H](C)N)C(=O)N[C@@H](CC(=O)O)C(=O)N[C@@H](C)C(=O)N[C@@H](CC(=O)O)C(=O)N[C@@H](Cc1cccc3ccccc13)C(=O)N2 [BCY12262]	3.29	68	0.017	–
I: ACDADWCDVPSLPCAK-NH2 / II: ACDADWCDVPSLPCAK-NH2 / III: ACDADWCDVPSLPCAK-NH2 (linker I:2-I:7-I:14, II:2-II:7-II:14, III:2-III:7-III:14 via X1; linker I:16-II:16-III:16 via X3) [BCY12259]	–	61	0.233	14.4
I: ACDAD[1Nal]CDVPSLPCAK-NH2 / II: ACDAD[1Nal]CDVPSLPCAK-NH2 / III: ACDAD[1Nal]CDVPSLPCAK-NH2 (linker I:2-I:7-I:14, II:2-II:7-II:14, III:2-III:7-III:14 via X1; linker I:16-II:16-III:16 via X3) [BCY12260]	–	64	0.109	9.62
